{
  "source": "ChEMBL document CHEMBL1201862",
  "about": "“PubChem BioAssay data set” (2004)",
  "key": {"BJ [1]": {"test_system": "BJ", "assay": "cytotoxicity toward BJ-TERT fibroblasts, dose response, cell-based, RAS-independent, luminescence (AID 1933)", "type": "functional", "details": "Homo sapiens"}, "[2]": {"target": "Heat shock protein HSP 90-alpha (Homo sapiens, UniProt P07900)", "assay": "Luminescence-based dose response biochemical high throughput screening assay for inhibitors of the Heat Shock Protein 90 (HSP90). [Related pubchem assays: 1831 (Summary AID.), 1846 (Confirmation screen.), 1789 (Primary screen.)]"}, "BJ [3]": {"test_system": "BJ", "assay": "cells", "type": "functional, cell-based", "details": "Homo sapiens"}, "[4]": {"assay": "cytotoxicity toward DRD oncogenic fibroblasts, dose response, cell-based, non-viral oncogenic, luminescence (AID 1934)", "type": "functional", "details": "Homo sapiens"}, "BJ [5]": {"test_system": "BJ", "assay": "cytotoxicity toward Ras-transformed BJeLR fibroblasts, dose response, cell-based, alamar blue fluorescence, cherrypicked samples (AID 2631)", "type": "functional", "details": "Homo sapiens"}, "[6]": {"target": "T1, Type-1 angiotensin II receptor (Homo sapiens, UniProt P30556)", "T1 sequence (P30556 whole entry)": "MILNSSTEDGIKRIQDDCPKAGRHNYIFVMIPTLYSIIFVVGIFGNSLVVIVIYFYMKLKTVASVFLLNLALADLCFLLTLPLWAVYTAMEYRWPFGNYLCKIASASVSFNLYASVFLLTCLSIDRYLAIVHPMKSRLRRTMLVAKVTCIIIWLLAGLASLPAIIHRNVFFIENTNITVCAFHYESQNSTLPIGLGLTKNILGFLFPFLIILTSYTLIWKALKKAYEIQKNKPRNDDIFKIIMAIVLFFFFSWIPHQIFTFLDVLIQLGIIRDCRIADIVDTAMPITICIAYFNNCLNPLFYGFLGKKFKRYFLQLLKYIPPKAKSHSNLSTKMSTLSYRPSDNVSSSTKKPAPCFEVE", "assay": "AT1 receptor antagonists, dose response, selectivity assay for APJ receptor antagonist project, cell-based, uHTS hits (AID 463214);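 note: antagonist potency against angiotensin II stimulated AT1 response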", "type": "functional"}, "BJ [7]": {"test_system": "BJ", "assay": "cytotoxicity toward BJ-TERT-LT-ST fibroblasts, dose response, cell-based, RAS-independent, luminescence (AID 1935);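 note: BJ fibroblasts immortalized with TERT plus LT and ST oncogenes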", "type": "functional", "details": "Homo sapiens"}, "[8]": {"target": "T2, Heat shock factor protein 1 (Mus musculus, UniProt P38532)", "T2 sequence (P38532 whole entry)": "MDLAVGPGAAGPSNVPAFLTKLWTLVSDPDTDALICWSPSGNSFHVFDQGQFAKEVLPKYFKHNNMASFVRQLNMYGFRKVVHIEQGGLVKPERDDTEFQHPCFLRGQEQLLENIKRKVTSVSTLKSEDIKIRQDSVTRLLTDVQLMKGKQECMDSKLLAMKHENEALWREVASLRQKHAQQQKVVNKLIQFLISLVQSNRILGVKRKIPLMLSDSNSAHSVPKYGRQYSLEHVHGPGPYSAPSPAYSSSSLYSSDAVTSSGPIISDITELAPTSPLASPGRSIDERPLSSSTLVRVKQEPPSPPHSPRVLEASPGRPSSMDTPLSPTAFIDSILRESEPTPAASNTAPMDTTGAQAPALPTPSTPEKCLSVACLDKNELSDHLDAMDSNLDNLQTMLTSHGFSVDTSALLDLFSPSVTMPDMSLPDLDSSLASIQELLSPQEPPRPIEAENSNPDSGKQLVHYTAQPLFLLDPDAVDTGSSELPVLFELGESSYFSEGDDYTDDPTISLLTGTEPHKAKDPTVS", "assay": "inhibition of MG132-induced HSE-luciferase signal, confirmation, cell-based, NIH3T3, luminescence, dose retest (AID 2382);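 note: NIH3T3 fibroblasts with HSF1-driven luciferase reporter stressed by proteasome inhibitor MG132; luminescence from HSF1-driven luciferase expression after 8 hours of MG132 stress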", "type": "functional"}, "Beta-galactosidase": {"target": "Beta-galactosidase (Escherichia coli, UniProt Q8VNN2)", "sequence (Q8VNN2 whole entry)": "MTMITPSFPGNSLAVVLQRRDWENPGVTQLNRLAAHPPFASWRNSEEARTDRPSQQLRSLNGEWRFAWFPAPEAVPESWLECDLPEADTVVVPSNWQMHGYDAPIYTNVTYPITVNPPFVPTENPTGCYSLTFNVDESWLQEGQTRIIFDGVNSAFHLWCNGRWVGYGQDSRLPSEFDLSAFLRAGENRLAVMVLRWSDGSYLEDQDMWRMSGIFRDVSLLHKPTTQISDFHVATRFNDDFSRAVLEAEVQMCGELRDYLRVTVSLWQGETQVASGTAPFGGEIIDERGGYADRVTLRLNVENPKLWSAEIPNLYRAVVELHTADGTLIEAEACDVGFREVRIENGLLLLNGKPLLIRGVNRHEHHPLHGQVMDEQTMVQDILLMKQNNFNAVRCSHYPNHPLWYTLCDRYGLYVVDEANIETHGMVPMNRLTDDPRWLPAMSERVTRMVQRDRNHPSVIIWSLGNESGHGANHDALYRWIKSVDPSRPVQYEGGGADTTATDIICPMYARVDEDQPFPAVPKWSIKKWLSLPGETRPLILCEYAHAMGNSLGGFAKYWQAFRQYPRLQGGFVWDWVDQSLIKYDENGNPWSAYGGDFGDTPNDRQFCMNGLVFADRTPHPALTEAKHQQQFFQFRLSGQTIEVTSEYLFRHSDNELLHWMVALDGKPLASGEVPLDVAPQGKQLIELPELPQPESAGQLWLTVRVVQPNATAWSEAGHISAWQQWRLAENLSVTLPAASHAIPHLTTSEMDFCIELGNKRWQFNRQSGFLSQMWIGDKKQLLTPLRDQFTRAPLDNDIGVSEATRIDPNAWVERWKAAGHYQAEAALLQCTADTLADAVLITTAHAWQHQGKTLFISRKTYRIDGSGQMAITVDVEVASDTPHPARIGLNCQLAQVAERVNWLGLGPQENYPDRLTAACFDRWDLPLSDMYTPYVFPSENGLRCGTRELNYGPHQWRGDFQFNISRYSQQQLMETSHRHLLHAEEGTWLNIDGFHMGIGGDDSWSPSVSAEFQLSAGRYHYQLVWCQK", "assay": "PubChem AID 485352", "type": "functional"}, "Leucine aminopeptidase": {"target": "T3, Leucine aminopeptidase (Plasmodium falciparum 3D7, UniProt Q8IL11)", "T3 sequence (Q8IL11 whole entry)": "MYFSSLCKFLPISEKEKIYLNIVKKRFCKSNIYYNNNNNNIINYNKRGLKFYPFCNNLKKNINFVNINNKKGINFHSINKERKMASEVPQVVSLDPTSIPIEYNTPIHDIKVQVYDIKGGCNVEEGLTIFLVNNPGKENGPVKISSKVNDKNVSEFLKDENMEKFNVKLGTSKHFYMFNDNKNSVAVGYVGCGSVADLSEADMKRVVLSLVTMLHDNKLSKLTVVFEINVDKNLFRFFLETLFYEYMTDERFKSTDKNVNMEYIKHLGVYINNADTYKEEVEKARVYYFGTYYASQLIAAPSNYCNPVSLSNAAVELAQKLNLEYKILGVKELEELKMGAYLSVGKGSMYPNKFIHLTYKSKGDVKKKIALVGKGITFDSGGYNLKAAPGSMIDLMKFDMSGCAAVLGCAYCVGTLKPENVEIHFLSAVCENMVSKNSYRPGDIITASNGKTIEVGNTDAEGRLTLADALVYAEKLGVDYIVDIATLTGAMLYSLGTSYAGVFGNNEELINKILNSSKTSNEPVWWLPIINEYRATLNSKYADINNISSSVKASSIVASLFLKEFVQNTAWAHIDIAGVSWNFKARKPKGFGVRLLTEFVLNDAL", "assay": "P. falciparum M17LAP inhibitors, primary screen, biochemical, fluorogenic H-Leu-NHMec substrate, 1536-well (AID 1619)", "type": "functional"}, "[9]": {"target": "T4, Mannose-6-phosphate isomerase (Homo sapiens, UniProt P34949)", "T4 sequence (P34949 whole entry)": "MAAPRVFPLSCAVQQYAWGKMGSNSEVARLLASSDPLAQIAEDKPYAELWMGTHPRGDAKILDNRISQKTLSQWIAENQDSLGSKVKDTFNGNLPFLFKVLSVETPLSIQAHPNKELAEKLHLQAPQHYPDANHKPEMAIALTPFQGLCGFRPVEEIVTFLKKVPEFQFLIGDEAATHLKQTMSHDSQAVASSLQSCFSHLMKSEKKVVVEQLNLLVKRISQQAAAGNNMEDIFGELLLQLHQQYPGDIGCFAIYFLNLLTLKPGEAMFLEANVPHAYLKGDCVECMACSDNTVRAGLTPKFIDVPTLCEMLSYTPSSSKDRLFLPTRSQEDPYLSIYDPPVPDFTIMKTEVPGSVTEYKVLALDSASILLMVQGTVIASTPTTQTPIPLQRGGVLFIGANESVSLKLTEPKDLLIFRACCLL", "assay": "inhibitors of human PMI, primary screen, biochemical, fluorescence intensity, coupled assay (AID 1209)"}, "[10]": {"target": "T5, High affinity choline transporter 1 (Homo sapiens, UniProt Q9GZV3)", "T5 sequence (Q9GZV3 whole entry)": "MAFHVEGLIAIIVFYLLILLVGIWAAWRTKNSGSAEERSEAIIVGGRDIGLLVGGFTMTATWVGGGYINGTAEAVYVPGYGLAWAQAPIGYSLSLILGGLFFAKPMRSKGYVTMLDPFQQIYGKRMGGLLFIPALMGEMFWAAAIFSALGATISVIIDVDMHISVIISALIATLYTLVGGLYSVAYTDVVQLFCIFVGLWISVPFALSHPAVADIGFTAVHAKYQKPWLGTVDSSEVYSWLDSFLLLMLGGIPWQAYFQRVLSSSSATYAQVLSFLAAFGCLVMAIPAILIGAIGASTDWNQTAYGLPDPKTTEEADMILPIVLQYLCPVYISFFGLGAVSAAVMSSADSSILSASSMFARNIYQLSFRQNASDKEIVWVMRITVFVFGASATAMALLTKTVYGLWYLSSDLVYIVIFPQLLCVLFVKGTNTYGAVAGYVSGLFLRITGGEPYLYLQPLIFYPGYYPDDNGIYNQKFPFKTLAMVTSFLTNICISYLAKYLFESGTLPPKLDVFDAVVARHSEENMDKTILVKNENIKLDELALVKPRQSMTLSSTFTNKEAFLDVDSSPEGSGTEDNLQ", "assay": "CHT inhibitors, dose response, cell-based, 5-point CRC, membrane potential dye (AID 504840)", "type": "functional"}, "[11]": {"target": "T4, Mannose-6-phosphate isomerase", "assay": "PMI enzyme inhibitors, confirmation, biochemical, fluorescence intensity (AID 1535)"}, "Phosphomannomutase 2": {"target": "T6, Phosphomannomutase 2 (Homo sapiens, UniProt O15305)", "T6 sequence (O15305 whole entry)": "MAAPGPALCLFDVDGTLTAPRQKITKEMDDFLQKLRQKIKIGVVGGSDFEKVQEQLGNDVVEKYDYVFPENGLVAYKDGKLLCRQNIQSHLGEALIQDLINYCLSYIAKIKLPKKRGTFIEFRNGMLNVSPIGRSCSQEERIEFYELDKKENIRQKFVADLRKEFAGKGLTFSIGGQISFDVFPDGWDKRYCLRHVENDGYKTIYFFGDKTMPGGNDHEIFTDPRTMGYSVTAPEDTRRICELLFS", "assay": "Counter screen SAR assay for PMM2 inhibitors via a fluorescence intensity assay. [Related pubchem assays (depositor defined):AID1545, AID1574]"}, "Escherichia coli": {"test_system": "Escherichia coli", "assay": "microbe, parasite or virus in culture"}, "HeLa": {"test_system": "HeLa", "assay": "HeLa cell cytotoxicity, dose response, cytotoxicity control for MITF activator project, CellTiter-Glo luminescence, cherry-pick samples (AID 540259)", "type": "functional, cell-based", "details": "Homo sapiens"}, "[12]": {"target": "Glucose-6-phosphate 1-dehydrogenase (Homo sapiens, UniProt P11413)", "sequence (P11413 whole entry)": "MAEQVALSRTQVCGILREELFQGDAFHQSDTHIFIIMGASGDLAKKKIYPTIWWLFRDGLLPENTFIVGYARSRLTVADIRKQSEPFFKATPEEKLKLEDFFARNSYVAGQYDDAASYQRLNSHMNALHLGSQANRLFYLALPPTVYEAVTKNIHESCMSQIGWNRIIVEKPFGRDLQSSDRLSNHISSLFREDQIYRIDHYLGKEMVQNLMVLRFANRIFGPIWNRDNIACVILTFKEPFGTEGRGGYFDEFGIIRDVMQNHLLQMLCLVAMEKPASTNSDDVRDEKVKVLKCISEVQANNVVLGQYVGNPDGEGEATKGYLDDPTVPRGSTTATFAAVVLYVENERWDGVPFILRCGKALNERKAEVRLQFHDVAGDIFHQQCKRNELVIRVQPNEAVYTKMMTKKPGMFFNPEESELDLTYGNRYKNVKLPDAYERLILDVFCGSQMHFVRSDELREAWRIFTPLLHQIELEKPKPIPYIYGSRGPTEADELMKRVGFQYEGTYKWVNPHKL", "assay": "human G6PD enzyme inhibitors, dose response, selectivity assay for P. falciparum G6PD inhibitor project, biochemical, fluorescence (AID 504792)", "type": "functional"}, "[13]": {"target": "T7, Rac GTPase-activating protein 1 (Homo sapiens, UniProt Q9H0H5)", "T7 sequence (Q9H0H5 whole entry)": "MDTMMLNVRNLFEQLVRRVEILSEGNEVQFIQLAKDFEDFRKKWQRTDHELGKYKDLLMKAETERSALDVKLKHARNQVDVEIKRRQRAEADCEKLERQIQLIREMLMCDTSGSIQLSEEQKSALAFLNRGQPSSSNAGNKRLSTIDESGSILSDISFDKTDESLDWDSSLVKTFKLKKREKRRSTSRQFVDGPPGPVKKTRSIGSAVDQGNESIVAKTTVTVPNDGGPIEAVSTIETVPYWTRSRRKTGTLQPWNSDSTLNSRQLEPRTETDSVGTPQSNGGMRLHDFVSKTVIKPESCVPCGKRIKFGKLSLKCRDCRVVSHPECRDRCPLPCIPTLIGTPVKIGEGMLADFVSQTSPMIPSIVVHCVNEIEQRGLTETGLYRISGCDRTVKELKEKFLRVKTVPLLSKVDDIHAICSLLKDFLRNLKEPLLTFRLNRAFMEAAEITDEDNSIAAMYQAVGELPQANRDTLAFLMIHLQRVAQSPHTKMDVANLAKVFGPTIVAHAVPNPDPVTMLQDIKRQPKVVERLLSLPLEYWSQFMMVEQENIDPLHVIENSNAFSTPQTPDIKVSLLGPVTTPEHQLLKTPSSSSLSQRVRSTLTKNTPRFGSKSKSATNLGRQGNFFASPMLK", "assay": "MgcRacGAP GTPase-activating activity inhibitors, confirmation, biochemical, ADP Hunter fluorescence, primary and confirmatory (AID 624330)", "type": "functional"}},
  "note": "The source made the active and inactive calls.",
  "data": [
    {"compound": "O=[N+]([O-])c1ccc(N=Nc2ncc[nH]2)cc1", "values": [
      {"measurement": "EC50", "setting": "BJ [1]", "value": "5.4 µM (inconclusive)"},
      {"measurement": "IC50", "setting": "[2]", "value": "10.2 µM (not active)"},
      {"measurement": "EC50", "setting": "BJ [3]", "value": "2.43 µM (inconclusive)"},
      {"measurement": "EC50", "setting": "[4]", "value": "11.5 µM (inconclusive)"},
      {"measurement": "EC50", "setting": "BJ [5]", "value": "14.8 µM (active)"},
      {"measurement": "IC50", "setting": "[6]", "value": "23.5 µM (not active)"},
      {"measurement": "EC50", "setting": "BJ [7]", "value": "> 150 µM (inconclusive)"},
      {"measurement": "EC50", "setting": "[8]", "value": "8.49 µM (active)"},
      {"measurement": "EC50", "setting": "Beta-galactosidase", "value": "> 40 µM (inactive)"}
    ]},
    {"compound": "CC(C)(C)c1ccc(C(=O)CSc2nnc[nH]2)cc1", "values": [
      {"measurement": "IC50", "setting": "Leucine aminopeptidase", "value": "46 µM (active)"},
      {"measurement": "IC50", "setting": "[9]", "value": "6.08 µM (active)"},
      {"measurement": "IC50", "setting": "[10]", "value": "13.2 µM (active)"},
      {"measurement": "IC50", "setting": "[11]", "value": "> 50 µM (inactive)"},
      {"measurement": "IC50", "setting": "Phosphomannomutase 2", "value": "> 100 µM (inactive)"}
    ]},
    {"compound": "CCCC(=O)Nc1ccc(NC(=O)c2ccccn2)cn1", "values": [
      {"measurement": "AC50", "setting": "Escherichia coli", "value": "58.3 µM (active)"}
    ]},
    {"compound": "COc1ccc(OCc2cc(C(=O)NC(C)c3cnn(C)c3)no2)c(Cl)c1", "note": "(stereo not drawn)", "values": [
      {"measurement": "AC50", "setting": "HeLa", "value": "79.6 µM (active)"}
    ]},
    {"compound": "O=C1CCN(c2ccccc2)N1", "note": "[PHENIDONE]", "values": [
      {"measurement": "IC50", "setting": "[12]", "value": "42.1 µM (inactive)"},
      {"measurement": "IC50", "setting": "[13]", "value": "46.5 µM (active)"}
    ]}
  ]
}
